Legend:
Assay type in all cases: biochemical
Conditions in all cases: ADP-Glo SIK kinase assay
[1] = target: T1, SIK1 (Homo sapiens, UniProt P57059); experiment: ADP-Glo kinase assay, SIK1
T1 construct: purchased Carna Biosciences 02-131
Method in brief: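 Wells with 1% DMSO or 10 μM staurosporine (final) define the control window. The kinase reaction with substrate and ATP runs 120 min at RT, followed by ADP-Glo detection: ATP depletion (40 min) and ADP-derived luminescence (30 min).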

[2] = target: T2, SIK3 (Homo sapiens, UniProt Q9Y2K2); experiment: ADP-Glo kinase assay, SIK3
T2 construct: purchased SignalChem S12-11G-100
Method in brief: (§1)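 Enzyme–substrate mix was started with ATP and incubated 120 min at RT. ADP formed was quantified by ADP-Glo: 40 min ATP depletion, then 30 min detection reagent converting ADP to ATP for luciferase luminescence, which rises with kinase activity. Controls: 1% DMSO and 10 μM staurosporine (final).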

[3] = target: T3, SIK2 (Homo sapiens, UniProt Q9H0K1); experiment: ADP-Glo kinase assay, SIK2
T3 construct: purchased ThermoFisher Scientific PV4792
Method in brief: as §1

T1 sequence (P57059 whole entry): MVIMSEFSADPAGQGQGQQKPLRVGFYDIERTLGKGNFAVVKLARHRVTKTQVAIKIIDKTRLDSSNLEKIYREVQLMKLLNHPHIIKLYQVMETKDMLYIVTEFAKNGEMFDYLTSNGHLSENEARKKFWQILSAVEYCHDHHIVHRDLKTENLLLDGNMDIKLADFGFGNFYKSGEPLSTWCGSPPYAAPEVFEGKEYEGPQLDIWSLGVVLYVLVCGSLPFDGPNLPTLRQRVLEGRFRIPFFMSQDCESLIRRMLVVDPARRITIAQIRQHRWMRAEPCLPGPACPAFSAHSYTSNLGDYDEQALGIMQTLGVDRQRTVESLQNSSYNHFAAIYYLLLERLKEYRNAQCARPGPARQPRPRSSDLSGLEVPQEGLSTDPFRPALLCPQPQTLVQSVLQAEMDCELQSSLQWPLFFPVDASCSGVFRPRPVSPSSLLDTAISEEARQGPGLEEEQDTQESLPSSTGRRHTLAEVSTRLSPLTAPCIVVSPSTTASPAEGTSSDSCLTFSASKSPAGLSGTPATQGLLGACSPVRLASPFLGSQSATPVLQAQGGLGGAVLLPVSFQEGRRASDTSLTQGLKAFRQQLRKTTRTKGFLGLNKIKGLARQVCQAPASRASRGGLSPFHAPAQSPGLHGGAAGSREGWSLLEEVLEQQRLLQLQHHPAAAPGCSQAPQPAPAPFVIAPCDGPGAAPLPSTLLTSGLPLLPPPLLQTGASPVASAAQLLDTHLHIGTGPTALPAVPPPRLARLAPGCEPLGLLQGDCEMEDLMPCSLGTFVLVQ
T3 sequence (Q9H0K1 whole entry): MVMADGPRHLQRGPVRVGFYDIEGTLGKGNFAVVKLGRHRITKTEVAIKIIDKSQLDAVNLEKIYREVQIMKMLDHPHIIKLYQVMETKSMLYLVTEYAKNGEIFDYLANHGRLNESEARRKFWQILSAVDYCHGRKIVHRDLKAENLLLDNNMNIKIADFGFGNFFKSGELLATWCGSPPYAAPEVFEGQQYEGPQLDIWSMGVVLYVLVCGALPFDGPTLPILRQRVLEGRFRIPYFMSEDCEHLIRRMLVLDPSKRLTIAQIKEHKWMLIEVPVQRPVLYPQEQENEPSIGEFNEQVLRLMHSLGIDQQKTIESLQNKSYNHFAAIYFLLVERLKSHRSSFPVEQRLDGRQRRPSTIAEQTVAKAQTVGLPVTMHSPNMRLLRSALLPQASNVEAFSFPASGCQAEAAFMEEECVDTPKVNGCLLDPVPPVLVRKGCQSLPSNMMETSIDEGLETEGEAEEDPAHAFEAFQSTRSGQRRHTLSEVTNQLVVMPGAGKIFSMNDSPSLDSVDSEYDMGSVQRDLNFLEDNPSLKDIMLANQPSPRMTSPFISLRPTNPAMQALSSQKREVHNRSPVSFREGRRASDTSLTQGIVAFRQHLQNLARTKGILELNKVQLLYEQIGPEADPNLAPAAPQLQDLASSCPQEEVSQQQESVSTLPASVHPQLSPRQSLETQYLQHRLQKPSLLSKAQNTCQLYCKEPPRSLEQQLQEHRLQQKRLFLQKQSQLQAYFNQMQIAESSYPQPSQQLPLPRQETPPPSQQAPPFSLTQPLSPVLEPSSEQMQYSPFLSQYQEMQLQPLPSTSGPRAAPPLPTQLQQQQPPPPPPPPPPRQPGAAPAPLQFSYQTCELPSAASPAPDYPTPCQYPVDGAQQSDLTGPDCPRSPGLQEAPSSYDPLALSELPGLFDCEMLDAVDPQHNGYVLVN
T2 sequence (Q9Y2K2 whole entry): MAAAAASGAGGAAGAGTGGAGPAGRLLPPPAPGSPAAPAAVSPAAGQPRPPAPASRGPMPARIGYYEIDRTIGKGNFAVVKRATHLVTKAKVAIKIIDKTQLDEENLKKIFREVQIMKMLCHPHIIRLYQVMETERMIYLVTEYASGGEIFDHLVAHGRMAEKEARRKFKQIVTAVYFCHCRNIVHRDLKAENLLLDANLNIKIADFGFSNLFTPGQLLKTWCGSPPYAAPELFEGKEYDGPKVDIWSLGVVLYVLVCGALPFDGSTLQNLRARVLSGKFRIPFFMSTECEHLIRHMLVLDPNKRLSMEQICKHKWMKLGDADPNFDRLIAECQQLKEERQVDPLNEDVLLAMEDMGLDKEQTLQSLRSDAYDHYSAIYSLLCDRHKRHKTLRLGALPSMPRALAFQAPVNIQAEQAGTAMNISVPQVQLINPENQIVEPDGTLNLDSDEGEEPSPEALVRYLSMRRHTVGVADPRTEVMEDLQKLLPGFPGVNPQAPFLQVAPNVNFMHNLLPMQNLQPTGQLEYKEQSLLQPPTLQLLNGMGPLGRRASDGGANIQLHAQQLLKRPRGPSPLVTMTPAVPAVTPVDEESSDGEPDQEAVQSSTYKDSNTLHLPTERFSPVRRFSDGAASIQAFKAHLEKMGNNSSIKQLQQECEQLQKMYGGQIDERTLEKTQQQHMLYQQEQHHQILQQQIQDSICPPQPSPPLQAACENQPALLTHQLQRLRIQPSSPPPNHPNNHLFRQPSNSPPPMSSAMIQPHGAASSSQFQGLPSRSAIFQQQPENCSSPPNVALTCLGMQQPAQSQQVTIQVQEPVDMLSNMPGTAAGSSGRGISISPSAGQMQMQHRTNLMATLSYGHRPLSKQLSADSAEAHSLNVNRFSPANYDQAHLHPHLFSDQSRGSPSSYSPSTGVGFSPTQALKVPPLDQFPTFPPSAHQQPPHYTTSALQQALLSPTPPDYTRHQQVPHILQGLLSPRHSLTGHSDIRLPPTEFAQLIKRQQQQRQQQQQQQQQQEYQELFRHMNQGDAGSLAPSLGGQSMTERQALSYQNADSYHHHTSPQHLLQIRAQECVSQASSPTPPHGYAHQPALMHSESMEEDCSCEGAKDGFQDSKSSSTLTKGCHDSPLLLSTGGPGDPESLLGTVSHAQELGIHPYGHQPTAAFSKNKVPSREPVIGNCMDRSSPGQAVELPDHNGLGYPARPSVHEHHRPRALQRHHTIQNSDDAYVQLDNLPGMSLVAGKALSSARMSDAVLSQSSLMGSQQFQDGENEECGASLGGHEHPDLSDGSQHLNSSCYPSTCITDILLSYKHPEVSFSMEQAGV

Row | IC50 [1] [nM] | IC50 [2] [nM] | IC50 [3] [nM] | Structure (SMILES)
1 | 10 to 100 | 0.01 to 10 | 0.01 to 10 | COc1cc(-c2cnc3cc(OCCCN4CCCC4)ccn23)cc(OC(F)F)c1C(=O)NC1CC1 [compound 275, N-cyclopropyl-2-(difluoromethoxy)-6-methoxy-4-[7-(3-pyrrolidin-1-ylpropoxy)imidazo[1,2-a]pyridin-3-yl]benzamide]
2 | 10 to 100 | 0.01 to 10 | 0.01 to 10 | COc1cc(-c2cnc3cc(OCCOCCN4CCCCC4)ccn23)cc(OC(F)F)c1C(=O)NC1CC1 [compound 305]
3 | 10 to 100 | 0.01 to 10 | 0.01 to 10 | COc1cc(-c2cnc3cc(OCCCN4CCS(=O)(=O)CC4)ccn23)cc(OC(F)F)c1C(=O)NC1CC1 [Cpd 331, N-cyclopropyl-2-(difluoromethoxy)-4-[7-[3-(1,1-dioxo-1,4-thiazinan-4-yl)propoxy]imidazo[1,2-a]pyridin-3-yl]-6-methoxy-benzamide]
4 | 10 to 100 | 0.01 to 10 | 0.01 to 10 | COc1cc(-c2cnc3cc(OCCCN4CCC5(CC4)CN(C)C(=O)O5)ccn23)cc(OC(F)F)c1C(=O)NC1CC1 [compound 325, N-cyclopropyl-2-(difluoromethoxy)-6-methoxy-4-[7-[3-(3-methyl-2-oxo-1-oxa-3,8-diazaspiro[4.5]decan-8-yl)propoxy]imidazo[1,2-a]pyridin-3-yl]benzamide]
5 | 10 to 100 | 0.01 to 10 | 0.01 to 10 | COc1cc(-c2cnc3cc(OCCCN4CCC5(CC4)CNC(=O)O5)ccn23)cc(OC(F)F)c1C(=O)NC1CC1 [Cpd 324, N-cyclopropyl-2-(difluoromethoxy)-6-methoxy-4-[7-[3-(2-oxo-1-oxa-3,8-diazaspiro[4.5]decan-8-yl)propoxy]imidazo[1,2-a]pyridin-3-yl]benzamide]
6 | 10 to 100 | 0.01 to 10 | 0.01 to 10 | CCOC(=O)C1(F)CCN(CCCOc2ccn3c(-c4cc(OC)c(C(=O)NC5CC5)c(OC(F)F)c4)cnc3c2)CC1 [Cpd 363, ethyl 1-[3-[3-[4-(cyclopropylcarbamoyl)-3-(difluoromethoxy)-5-methoxy-phenyl]imidazo[1,2-a]pyridin-7-yl]oxypropyl]-4-fluoro-piperidine-4-carboxylate]
7 | 10 to 100 | 0.01 to 10 | 0.01 to 10 | COc1cc(-c2cnc3cc(OCCN4CCN(C)CC4)ccn23)cc(OC(F)F)c1C(=O)NC1CC1 [compound 9, N-cyclopropyl-2-(difluoromethoxy)-6-methoxy-4-[7-[2-(4-methylpiperazin-1-yl)ethoxy]imidazo[1,2-a]pyridin-3-yl]benzamide]
8 | 10 to 100 | 0.01 to 10 | 0.01 to 10 | COc1cc(-c2cnc3cc(OCCCN4CC5(COC5)C4)ccn23)cc(OC(F)F)c1C(=O)NC1CC1 [compound 273, N-cyclopropyl-2-(difluoromethoxy)-6-methoxy-4-[7-[3-(2-oxa-6-azaspiro[3.3]heptan-6-yl)propoxy]imidazo[1,2-a]pyridin-3-yl]benzamide]
9 | 0.01 to 10 | 0.01 to 10 | 0.01 to 10 | COc1cc(-c2cnc3cc(OCCCN4CCC4)ccn23)cc(OC(F)F)c1C(=O)NC1CC1 [compound 274, 4-[7-[3-(azetidin-1-yl)propoxy]imidazo[1,2-a]pyridin-3-yl]-N-cyclopropyl-2-(difluoromethoxy)-6-methoxy-benzamide]

Second part, the compound before the results:

Row | Structure (SMILES) | IC50 [1] [nM] | IC50 [2] [nM] | IC50 [3] [nM]
10 | COc1cc(-c2cnc3cc(OCCN4CC(F)(F)C4)ccn23)cc2c1C(=O)N(CC(F)(F)F)CC2 [Cpd 244, 6-[7-[2-(3,3-difluoroazetidin-1-yl)ethoxy]imidazo[1,2-a]pyridin-3-yl]-8-methoxy-2-(2,2,2-trifluoroethyl)-3,4-dihydroisoquinolin-1-one] | 100 to 500 | 0.01 to 10 | 0.01 to 10
11 | COc1cc(-c2cnc3cc(OCC4(F)CN(C(=O)OC(C)(C)C)C4)ccn23)cc2c1C(=O)N(CC(F)(F)F)CC2 [compound 248, tert-butyl 3-fluoro-3-[[3-[8-methoxy-1-oxo-2-(2,2,2-trifluoroethyl)-3,4-dihydroisoquinolin-6-yl]imidazo[1,2-a]pyridin-7-yl]oxymethyl]azetidine-1-carboxylate] | 100 to 500 | 0.01 to 10 | 0.01 to 10
12 | COc1cc(-c2cnc3cc(OCC(O)CN4CCOCC4)ccn23)cc(OC(F)F)c1C(=O)NC1CC1 (single isomer, unassigned) [Cpd 387, N-cyclopropyl-2-(difluoromethoxy)-4-[7-(2-hydroxy-3-morpholino-propoxy)imidazo[1,2-a]pyridin-3-yl]-6-methoxy-benzamide] | 10 to 100 | 0.01 to 10 | 0.01 to 10
13 | COc1cc(-c2cnc3cc(OCCN4C5CCC4COC5)ccn23)cc(OC(F)F)c1C(=O)NC1CC1 [compound 193, N-cyclopropyl-2-(difluoromethoxy)-6-methoxy-4-[7-[2-(3-oxa-8-azabicyclo [3.2.1]octan-8-yl)ethoxy]imidazo[1,2-a]pyridin-3-yl]benzamide] | 10 to 100 | 0.01 to 10 | 0.01 to 10
14 | CCOC(=O)C1(F)CCN(CCOc2ccn3c(-c4cc(OC)c(C(=O)NC5CC5)c(OC(F)F)c4)cnc3c2)CC1 [compound 390, ethyl 1-[2-[3-[4-(cyclopropylcarbamoyl)-3-(difluoromethoxy)-5-methoxy-phenyl]imidazo[1,2-a]pyridin-7-yl]oxyethyl]-4-fluoro-piperidine-4-carboxylate] | 10 to 100 | 0.01 to 10 | 0.01 to 10
15 | COc1cc(-c2cnc3cc(OCC(O)CN4CCOCC4)ccn23)cc(OC(F)F)c1C(=O)NC1CC1 (single isomer, unassigned) [Cpd 386, N-cyclopropyl-2-(difluoromethoxy)-4-[7-(2-hydroxy-3-morpholino-propoxy)imidazo[1,2-a]pyridin-3-yl]-6-methoxy-benzamide] | 10 to 100 | 0.01 to 10 | 0.01 to 10
16 | COc1cc(-c2cnc3cc(OC(C)(C)CO)ccn23)cc(OC(F)F)c1C(=O)NC1CC1 [Cpd 209, N-cyclopropyl-2-(difluoromethoxy)-4-[7-(2-hydroxy-1,1-dimethyl-ethoxy)imidazo[1,2-a]pyridin-3-yl]-6-methoxy-benzamide] | > 500 | 10 to 100 | > 500
17 | COc1cc(-c2cnc3cc(OCCN4CCN(C(C)C)CC4)ccn23)cc(OC(F)F)c1C(=O)NC1CC1 [compound 276, N-cyclopropyl-2-(difluoromethoxy)-4-[7-[2-(4-isopropylpiperazin-1-yl)ethoxy]imidazo[1,2-a]pyridin-3-yl]-6-methoxy-benzamide] | 10 to 100 | 0.01 to 10 | 0.01 to 10
18 | COc1cc(-c2cnc3cc(OCCN4CCOC[C@H]4C)ccn23)cc2c1C(=O)N(CC(F)(F)F)CC2 [compound 259, 8-methoxy-6-[7-[2-[(3R)-3-methylmorpholin-4-yl]ethoxy]imidazo[1,2-a]pyridin-3-yl]-2-(2,2,2-trifluoroethyl)-3,4-dihydroisoquinolin-1-one] | 100 to 500 | 10 to 100 | 10 to 100
19 | COc1cc(-c2cnc3cc(OC[C@H]4COCCO4)ccn23)cc2c1C(=O)NCC2 [compound 242, 6-[7-[[(2R)-1,4-dioxan-2-yl]methoxy]imidazo[1,2-a]pyridin-3-yl]-8-methoxy-3,4-dihydro-2H-isoquinolin-1-one] | 10 to 100 | 0.01 to 10 | 0.01 to 10

Reference: patent publication US12264156B2, “Compounds and pharmaceutical compositions thereof for the treatment of diseases” (GALAPAGOS NV, priority 2018, dated 2025)
